The values below come from US6818643B1, “Neurotrophic bicyclic diamides” (Bristol-Myers Squibb Company, priority 1999, dated 2004).

The target of assay [1] is T1, FKBP12 (Homo sapiens, UniProt P62942). Nature of the assay: FKBP12 Rotamase Inhibition Assay. The assay is classed as biochemical. The method, then: FKBP12 Rotamase Inhibition Assay
The rotamase activity of FKBP-12 was measured by an adaptation of the assay described by Kofron et al. (Biochemistry, 30, pp. 6127-6134 (1991)). The assay was carried out at 4° C. with 1 mg chymotrypsin/mL of assay with succinyl-Ala-Leu-Pro-Phe-p-nitroanilide as the substrate. Chymotrypsin rapidly hydrolyzes the peptide bond on the C-terminal side of the Phe of the trans form of the peptide and releases the chromogenic p-nitroaniline. The rate of the reaction is controlled by the rate of conversion of the cis form of the peptide to the trans-form, the reaction catalyzed by FKBP12. The apparent Ki values for inhibition of the rotamase activity were determined by measuring decreases in the first order rate constant of the reaction catalyzed by FKBP12 as a function of the concentrations of the compounds described herein. Ki is the concentration of the compound that causes 50 percent inhibition of rotamase activity which is indicative of neurite outgrowth activity.

The target in assay [2] is T1, FKBP12. Nature of the assay: Fluorescence Polarization (FP) Assay of FKBP12 Binding. The conditions noted are these: for inhibition at 1 µM: read-out: % FP inhibition at 1 μM; for Ki: rotamase Ki derived from FP assay. Here is the method: Fluorescence Polarization (FP) Assay of FKBP12 Binding
The buffer (25 mM HEPES, 100 mM sodium chloride, pH 7.5) with pre-mixed enzyme and fluorescent ligand is distributed into wells (190 μL/well). Inhibitors are added as 10 μL of a 10% dimethylsulfoxide solution in the same buffer. FP is measured with an excitation wavelength of 485 nm and emission wavelength of 520 nm.
(In general: Polarisation of emitted light reports the rotation of a fluorescent probe.)

Setting [3] is: Table 2, 1 μM compound, 100 nM fluorescent ligand, 200 nM FKBP12.
[4] abbreviates: Table 1, 1 μM compound, 100 nM fluorescent ligand, 200 nM FKBP12.

T1 sequence (P62942 whole entry, species assumed): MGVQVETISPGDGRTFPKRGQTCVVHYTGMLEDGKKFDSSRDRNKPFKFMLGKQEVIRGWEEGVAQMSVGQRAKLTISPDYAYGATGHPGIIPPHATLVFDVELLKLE

Take `CCC(C)(C)C(=O)C(=O)N1CCCC[C@H]1C(=O)OC(CCCc1ccccc1)CCNC(=S)Nc1ccc(-c2c3ccc(=O)cc-3oc3cc(O)ccc23)c(C(=O)O)c1` (stereo partly drawn) [fluorescent FKBP12 ligand, 1-Phenyl-6-(fluoresceinylaminothiocarbamoyl)-4-hexyl-(S)-N-(t-pentylglyoxyl)pipecolate, reference compound]: the Ki – broadly, the dissociation constant of the complex between target and ligand, obtained from inhibition or displacement – in assay [1] (read-out: Ki measured by the prolyl isomerase assay) is 32 nM. Consider `COc1cc(C(=O)C(=O)N2C3CCC2C(=O)N(C(CCc2ccccc2)CCc2ccccc2)C3)cc(OC)c1OC` [Example 5, (1S,5R)-8-(3,4,5-Trimethoxyphenyl)oxalyl-3,8-diaza-3-[3-phenyl-1-(2-phenylethyl)propyl]bicyclo[3.2.1]octan-2-one], for which the inhibition (usually the change of the read-out against control, counted positive when it falls) at 1 µM in assay [1] (Table 2, 1 μM compound) stood at 49%. As for `COc1cc(CCCC(CCCc2ccccc2)CN2CC3CCC(C2=O)N3C(=O)C(F)(F)c2cc(OC)c(OC)c(OC)c2)cc(OC)c1OC` [Example 34, (1S,5R)-8-(3,4,5-Trimethoxyphenyl)difluoroacetyl-3,8-diaza-3-[2-(3-phenylpropyl)-5-(3,4,5-trimethoxyphenyl)pentyl]bicyclo[3.2.1]octan-2-one], the inhibition at 1 µM in assay [2] (setting [3]) is 11%. Turning to `COc1ccc(CCCCN2CC3CCCC(C2=O)N3C(=O)C(F)(F)c2cc(OC)c(OC)c(OC)c2)cc1OC` (stereo not shown) [Example 36, 9-(3,4,5-Trimethoxyphenyl)difluoroacetyl-3,9-diaza-3-[4-(3,4-dimethoxyphenyl)butyl]bicyclo[3.3.1]-nonan-2-one], in assay [2] (Table 1), the affinity, expressed as Ki, was 160 nM. Further, the inhibition at 1 µM in assay [2] worked out at 61%. For the compound `COC(=O)C(=O)N1C2CCCC1C(=O)N(CCCc1cc(OC)c(OC)c(OC)c1)C2` (stereo not shown) [Example 40, Methyl-2-{3,9-diaza-2-oxo-3-[3-(3,4,5-trimethoxyphenyl)propyl]bicyclo[3.3.1]non-9-yl}-2-oxoacetate], the inhibition at 1 µM in assay [2] (setting [4]) is 6%. Consider `COc1cc(C(=O)C(=O)N2C3CCC2C(=O)N(CCCCc2ccccc2)C3)cc(OC)c1OC` [Example 7, (1S,5R)-8-(3,4,5-Trimethoxyphenyl)oxalyl-3,8-diaza-3-(4-phenylbutyl)bicyclo[3.2.1]octan-2-one], for which the inhibition at 1 µM in assay [2] (setting [4]) came to 6%. On to `COc1cc(C(F)(F)C(=O)N2C3CCC2C(=O)N(CCCc2ccccc2)C3)cc(OC)c1OC` [Example 27, (1S,5R)-8-(3,4,5-Trimethoxyphenyl)difluoroacetyl-3,8-diaza-3-(3-phenylpropyl)bicyclo[3.2.1]octan-2-one], for which, in assay [2] (setting [4]), the inhibition at 1 µM is 22%. In the case of `COc1cc(C(F)(F)C(=O)N2C3CCCC2C(=O)N(CC(CCCc2ccccc2)CCCc2ccccc2)C3)cc(OC)c1OC` (stereo not shown) [Example 37], the inhibition at 1 µM in assay [2] (setting [3]) amounted to 4%. On to `COc1cc(C(=O)C(=O)N2[C@@H]3CC[C@H]2C(=O)N(CCCc2ccccc2)C3)cc(OC)c1OC` [Example 1, (1S,5R)-8-(3,4,5-Trimethoxyphenyl)oxalyl-3,8-diaza-3-(3-phenylpropyl)bicyclo[3.2.1]octan-2-one], for which, in assay [2] (setting [4]), the inhibition at 1 µM is 34%. In assay [2] (Table 1), this compound came in with an inhibitory constant (Ki) of 699 nM. With `COc1cc(CCCC(CCCc2ccccc2)CN2CC3CCCC(C2=O)N3C(=O)C(=O)c2cc(OC)c(OC)c(OC)c2)cc(OC)c1OC` (stereo not shown) [Example 23, 9-(3,4,5-Trimethoxyphenyl)oxalyl-3,9-diaza-3-[2-(3-phenylpropyl)-5-(3,4,5-trimethoxyphenyl)pentyl]bicyclo[3.3.1]-nonan-2-one], the inhibition at 1 µM in assay [2] (setting [3]) was determined as 81%. This compound returned a Ki in assay [2] (Table 2) of 44 nM.

With `COc1cc(C(F)(F)C(=O)N2C3CCC2C(=O)N(CCCCc2ccccc2)C3)cc(OC)c1OC` [Example 32, (1S,5R)-8-(3,4,5-Trimethoxyphenyl)difluoroacetyl-3,8-diaza-3-(4-phenylbutyl)bicyclo-[3.2.1]octan-2-one], in assay [2] (setting [4]), the inhibition at 1 µM is 4%. On to `COc1cc(C(F)(F)C(=O)N2C3CCC2C(=O)N(C(CCc2ccccc2)CCc2ccccc2)C3)cc(OC)c1OC` [Example 30, (1S,5R)-8-(3,4,5-Trimethoxyphenyl)difluoroacetyl-3,8-diaza-3-[3-phenyl-1-(2-phenylethyl)propyl]bicyclo[3.2.1]octan-2-one], for which, in assay [2] (setting [3]), the inhibition at 1 µM was found to be 4%. Turning to `COc1ccc(CCN2CC3CCC(C2=O)N3C(=O)C(=O)c2cc(OC)c(OC)c(OC)c2)cc1OC` [Example 2, (1S,5R)-8-(3,4,5-Trimethoxyphenyl)oxalyl-3,8-diaza-3-[2-(3,4-dimethoxyphenyl)ethyl]bicyclo[3.2.1]octan-2-one], in assay [2] (setting [4]), the inhibition at 1 µM came out at 3%. Take `COc1cc(CCCC(CCCc2ccccc2)CN2CC3CCCC(C2=O)N3C(=O)C(F)(F)c2cc(OC)c(OC)c(OC)c2)cc(OC)c1OC` (stereo not shown) [Example 38, 9-(3,4,5-Trimethoxyphenyl)difluoroacetyl-3,9-diaza-3-[2-(3-phenylpropyl)-5-(3,4,5-trimethoxyphenyl)pentyl]bicyclo[3.3.1]-nonan-2-one]: in assay [2] (setting [3]), the inhibition at 1 µM was determined as 50%. On to `COc1cc(C(=O)C(=O)N2C3CCCC2C(=O)N(CCCCCc2ccccc2)C3)cc(OC)c1OC` (stereo not shown) [Example 20, 9-(3,4,5-Trimethoxyphenyl)oxalyl-3,9-diaza-3-(5-phenylpentyl)bicyclo[3.3.1]nonan-2-one], for which, in assay [2] (Table 1), the Ki was determined as 152 nM. With `COc1ccc(CCCCN2CC3CCC(C2=O)N3C(=O)C(F)(F)c2cc(OC)c(OC)c(OC)c2)cc1OC` [Example 29, (1S,5R)-8-(3,4,5-Trimethoxyphenyl)difluoroacetyl-3,8-diaza-3-[4-(3,4-dimethoxyphenyl)butyl]bicyclo[3.2.1]octan-2-one], the inhibition at 1 µM in assay [2] (setting [4]) was determined as 8%.
